In patent US5866567A, “Diazepinones, their production and use” (Takeda Chemical Industries, Ltd., priority 1995, dated 1999):
Structures can show the parent of a compound that is named as a salt.

Key:
Human GnRH receptor = target: T1, Human GnRH receptor (Homo sapiens, UniProt P30968); experiment: Human GnRH receptor binding inhibition assay (125I-leuprolerin, membrane fraction of CHO cells expressing human GnRH receptors); settings: CHO cell membrane fraction with human GnRH receptors, 25° C., 60 minutes, concentration series, Hill plot, read-out: Binding inhibitory activity (IC50)
T1 construct: expressed in transfected cells; host or cells: CHO (Chinese hamster ovary) cells, membrane fraction
T1 sequence (P30968 1-328): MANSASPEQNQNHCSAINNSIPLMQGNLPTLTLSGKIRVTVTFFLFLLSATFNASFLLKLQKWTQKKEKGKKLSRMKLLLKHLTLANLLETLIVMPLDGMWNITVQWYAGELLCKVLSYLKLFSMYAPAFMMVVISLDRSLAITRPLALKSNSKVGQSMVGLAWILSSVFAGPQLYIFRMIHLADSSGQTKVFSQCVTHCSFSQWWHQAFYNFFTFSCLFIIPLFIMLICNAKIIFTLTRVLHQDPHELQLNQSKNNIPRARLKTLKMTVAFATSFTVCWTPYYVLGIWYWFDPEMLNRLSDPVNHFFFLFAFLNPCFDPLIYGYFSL
Experimental: Human GnRH receptor binding inhibition assay
(A) Preparation of ^125 I-leuprolerin
Ten (10) μl of 3×10^-4 M aqueous leuprolerin solution and 10 μl of 0.01 mg/ml lactoperoxidase solution were taken in a tube, and 10 μl of Na^125 I solution (37 MBq) was added. After stirring, 10 μl of 0.001% H2 O2 was added and the reaction was conducted at room temperature for 20 minutes. The reaction was stopped by adding 700 μl of 0.05% TFA solution, and the reaction mixture was purified by reversed HPLC. The HPLC parameters are shown below. The retention time of ^125 I-leuprolerin was 26-27 minutes.
Column: TSKgel ODS-80™ CTR (4.6 mm×10 cm)
Eluent: Solvent A (0.05%TFA) Solvent B (40%CH3 CN-0.05%TFA)
Min. 0 (100% Solvent A)--Min. 3 (100% Solvent A)--Min. 7 (50% Solvent A+50% Solvent B)--Min. 40 (100% Solvent B) Elution temperature: room temperature Elution flow rate: 1 ml/min.
CHO cells (10^9 cells) with human GnRH receptors expressed were floated on phosphate-buffered saline containing EDTA (PBS-EDTA) and centrifuged at 100×g for 5 minutes. To the pellet obtained was added 10 ml of a cell homogenate buffer (10 mM NaHCO3, 5 mM EDTA, pH 7.5) and the mixture was homogenized using a Polytron homogenizer. The homogenate was centrifuged at 400×g for 15 minutes and the supernatant was taken in an ultracentrifuge tube and recentrifuged at 100,000×g for 1 hour. The membrane fraction thus obtained as a pellet was suspended in 2 ml of assay buffer and centrifuged at 100,000×g for 1 hour. The membrane fraction recovered was resuspended in 20 ml of assay buffer and the suspension was portioned, stored at -80° C., and thawed when needed.
(C) Determination of the ^125 I-leuprolerin binding inhibition rate
The membrane fraction prepared in Step (B) was diluted with assay buffer to 200 μg/ml and the dilution was portioned into tubes, 188 μl per tube. Then, 2 μl of 2 mM solution of the test compound in 60% DMSO and 10 μl of 38 nM ^125 I-leuprolerin solution in the same solvent were simultaneously added to the tubes. To determine the maximum binding, a test mixture of 2 μl of 60% DMSO and 10 μl of 38 nM ^125 I-leuprolerin solution in the same solvent was prepared. For the determination of nonspecific binding, a test mixture of 2 μl of 100 μM leuprolerin solution in 60% DMSO and 10 μl of 38 nM solution of ^125 I-leuprolerin in the same solvent was also prepared. The mixtures were respectively allowed to react at 25° C. for 60 minutes and the reaction product in each tube was filtered through a poly(ethylene imine)-treated Whatman glass filter (GF-F) under suction. The radioactivity of ^125 I-leuprolerin remaining on the filter was determined using a γ-counter.
Using the measured values, the following equation was calculated to find the binding inhibition rate for each test compound.
Binding inhibition (%)=(TB-SB)/(TB-NSB)×100
[SB: radioactivity with the compound added
TB: maximum bound radioactivity
NBS: nonspecifically bound radioactivity]
Using a concentration series of each test compound, the concentration of the compound which inhibited the binding by 50% (IC50) was calculated by Hill plot.

[1] = repeated administration, receptor down-regulation; cited from earlier work
GnRH = settings: relative to native GnRH; cited from earlier work

Molecule | IC50 (Human GnRH receptor) | production of testosterone [1] | times as active as native GnRH (GnRH)
C[C@H](NC(=O)Nc1ccc(CN2C(=O)[C@H]3CCC[C@H]3N(C(=O)CN3C(=O)c4ccccc4C3=O)c3ccccc32)cc1)c1ccccc1 (relative stereo) [Example 28, (3aR*,10aS*)-9-[4-[3-((S)-1-Phenylethyl)ureido]-benzyl]-4-(phthalimidoacetyl)-2,3,3a,4,9,10a-hexahydrobenzo[b]cyclopenta[e][1,4]diazepin-10(1H)-one] | 0.3 µM |  | 
O=C(NCCc1ccccc1)Nc1ccc(CN2C(=O)[C@H]3CCC[C@H]3N(C(=O)CN3C(=O)c4ccccc4C3=O)c3ccccc32)cc1 (relative stereo) [Example 30, (3aR*,10aS*)-9-[4-[3-(2-Phenylethyl)ureido]benzyl]-4-(phthalimidoacetyl)-2,3,3a,4,9,10a-hexahydrobenzo[b]-cyclopenta[e][1,4]diazepin-10(1H)-one] | 0.04 µM |  | 
O=C(NCc1ccc(F)cc1)Nc1ccc(CN2C(=O)[C@H]3CCC[C@H]3N(C(=O)CN3C(=O)c4ccccc4C3=O)c3ccccc32)cc1 (relative stereo) [Example 31, (3aR*,10aS*)-9-[4-[3-(4-Fluorobenzyl)ureido]benzyl]-4-(phthalimidoacetyl)-2,3,3a,4,9,10a-hexahydrobenzo[b]-cyclopenta[e][1,4]diazepin-10(1H)-one] | 0.03 µM |  | 
COc1ccc(CNC(=O)Nc2ccc(CN3C(=O)[C@H]4CCC[C@H]4N(C(=O)CN4C(=O)c5ccccc5C4=O)c4ccccc43)cc2)cc1 (relative stereo) [Example 32, (3aR*,10aS*)-9-[4-[3-(4-Methoxybenzyl)ureido]-benzyl]-4-(phthalimidoacetyl)-2,3,3a,4,9,10a-hexahydro-benzo[b]cyclopenta[e][1,4]diazepin-10(1H)-one] | 0.04 µM |  | 
O=C(NCc1ccncc1)Nc1ccc(CN2C(=O)[C@H]3CCC[C@H]3N(C(=O)CN3C(=O)c4ccccc4C3=O)c3ccccc32)cc1 (relative stereo) [Example 34, (3aR*,10aS*)-4-(Phthalimidoacetyl)-9-[4-[3-(4-pyridylmethyl)ureido]benzyl]-2,3,3a,4,9,10a-hexahydrobenzo[b]cyclopenta[e][1,4]diazepin-l0(1H)-one hydrochloride] | 0.08 µM |  | 
Leuprolerin acetate |  | cut down on the production of testosterone to the castrated level | 20-50 times
